Laboratory results taken from patent EP1285919A1, “C10 Carbonate substituted taxanes as antitumor agents” (Florida State University Research Foundation, Inc., priority 2001, dated 2003).
pIC50: −log10 of the molar value.

Tested on: HCT116
Assay: In vitro cytotoxicity, cell colony formation assay
Type: cell-based
Settings: HCT116; 72 h with drug, colonies counted after 7 days; concentration producing 50% inhibition of colony formation; read-out: IN VITRO ID 50
Experimental: In Vitro cytotoxicity measured by the cell colony formation assay
Four hundred cells (HCT116) were plated in 60 mm Petri dishes containing 2.7 mL of medium (modified McCoy's 5a medium containing 10% fetal bovine serum and 100 units/mL penicillin and […] streptomycin). The cells were incubated in a CO2 incubator at 37 °C for 5 h for attachment to the bottom of Petri dishes. The compounds identified in Example 2 were made up fresh in medium at ten times the final concentration, and then 0.3 mL of this stock solution was added to the 2.7 mL of medium in the dish. The cells were then incubated with drugs for 72 h at 37 ° C. At the end of incubation the drug-containing media were decanted, the dishes were rinsed with 4 mL of Hank's Balance Salt Solution (HBSS), 5 mL of fresh medium was added, and the dishes were returned to the incubator for colony formation. The cell colonies were counted using a colony counter after incubation for 7 days.

Structure (SMILES)	pIC50
CCOC(=O)OC1C(=O)C2(C)C(O)CC3OCC3(OC(C)=O)C2C(OC(=O)c2ccccc2)C2(O)CC(OC(=O)C(O)C(NC(=O)OC(C)C)c3cccs3)C(C)=C1C2(C)C (stereo not drawn) [Compound 2999]	> 9.00
CCOC(=O)OC1C(=O)C2(C)C(O)CC3OCC3(OC(C)=O)C2C(OC(=O)c2ccccc2)C2(O)CC(OC(=O)C(O)C(NC(=O)OC(C)C)c3ccco3)C(C)=C1C2(C)C (stereo not drawn) [Compound 3963]	> 9.00
COC(=O)OC1C(=O)C2(C)C(O)CC3OCC3(OC(C)=O)C2C(OC(=O)c2ccccc2)C2(O)CC(OC(=O)C(O)C(NC(=O)OC(C)(C)C)c3ccccn3)C(C)=C1C2(C)C (stereo not drawn) [Compound 2002]	> 9.00
COC(=O)OC1C(=O)C2(C)C(O)CC3OCC3(OC(C)=O)C2C(OC(=O)c2ccccc2)C2(O)CC(OC(=O)C(O)C(NC(=O)OC(C)(C)C)c3ccncc3)C(C)=C1C2(C)C (stereo not drawn) [Compound 2020]	> 9.00
CCOC(=O)OC1C(=O)C2(C)C(O)CC3OCC3(OC(C)=O)C2C(OC(=O)c2ccccc2)C2(O)CC(OC(=O)C(O)C(NC(=O)OC(C)(C)C)C3CC3)C(C)=C1C2(C)C (stereo not drawn) [Compound 5171]	> 9.00
COC(=O)OC1C(=O)C2(C)C(O)CC3OCC3(OC(C)=O)C2C(OC(=O)c2ccccc2)C2(O)CC(OC(=O)C(O)C(C=C(C)C)NC(=O)OC(C)(C)C)C(C)=C1C2(C)C (stereo not drawn) [Compound 1999]	> 9.00
CCOC(=O)OC1C(=O)C2(C)C(O)CC3OCC3(OC(C)=O)C2C(OC(=O)c2ccccc2)C2(O)CC(OC(=O)C(O)C(NC(=O)OC(C)(C)C)c3cccnc3)C(C)=C1C2(C)C (stereo not drawn) [Compound 1808]	> 8.00
CCOC(=O)OC1C(=O)C2(C)C(O)CC3OCC3(OC(C)=O)C2C(OC(=O)c2ccccc2)C2(O)CC(OC(=O)C(O)C(NC(=O)OCC(C)C)c3ccco3)C(C)=C1C2(C)C (stereo not drawn) [Compound 3181]	> 9.00
CCOC(=O)OC1C(=O)C2(C)C(O)CC3OCC3(OC(C)=O)C2C(OC(=O)c2ccccc2)C2(O)CC(OC(=O)C(O)C(C=C(C)C)NC(=O)OC(C)(C)C)C(C)=C1C2(C)C (stereo not drawn) [Compound 1788]	> 9.00
COC(=O)OC1C(=O)C2(C)C(O)CC3OCC3(OC(C)=O)C2C(OC(=O)c2ccccc2)C2(O)CC(OC(=O)C(O)C(NC(=O)OC(C)(C)C)c3ccc([N+](=O)[O-])cc3)C(C)=C1C2(C)C (stereo not drawn) [Compound 2088]	> 9.00
CCOC(=O)OC1C(=O)C2(C)C(O)CC3OCC3(OC(C)=O)C2C(OC(=O)c2ccccc2)C2(O)CC(OC(=O)C(O)C(NC(=O)c3ccccc3)c3ccco3)C(C)=C1C2(C)C (stereo not drawn) [Compound 4090]	> 9.00
CCOC(=O)OC1C(=O)C2(C)C(O)CC3OCC3(OC(C)=O)C2C(OC(=O)c2ccccc2)C2(O)CC(OC(=O)C(O)C(NC(=O)OC(C)(C)C)c3ccccn3)C(C)=C1C2(C)C (stereo not drawn) [Compound 1799]	> 9.00
CCOC(=O)OC1C(=O)C2(C)C(O)CC3OCC3(OC(C)=O)C2C(OC(=O)c2ccccc2)C2(O)CC(OC(=O)C(O)C(NC(=O)OC(C)(C)C)c3ccc([N+](=O)[O-])cc3)C(C)=C1C2(C)C (stereo not drawn) [Compound 1866]	> 9.00
COC(=O)OC1C(=O)C2(C)C(O)CC3OCC3(OC(C)=O)C2C(OC(=O)c2ccccc2)C2(O)CC(OC(=O)C(O)C(NC(=O)OC(C)(C)C)c3ccsc3)C(C)=C1C2(C)C (stereo not drawn) [Compound 2050]	> 9.00
CCOC(=O)OC1C(=O)C2(C)C(O)CC3OCC3(OC(C)=O)C2C(OC(=O)c2ccccc2)C2(O)CC(OC(=O)C(O)C(C=C(C)C)NC(=O)OCC(C)C)C(C)=C1C2(C)C (stereo not drawn) [Compound 5155]	> 8.00
CCOC(=O)OC1C(=O)C2(C)C(O)CC3OCC3(OC(C)=O)C2C(OC(=O)c2ccccc2)C2(O)CC(OC(=O)C(O)C(NC(=O)c3ccco3)c3cccs3)C(C)=C1C2(C)C (stereo not drawn) [Compound 3011]	> 9.00
CCOC(=O)OC1C(=O)C2(C)C(O)CC3OCC3(OC(C)=O)C2C(OC(=O)c2ccccc2)C2(O)CC(OC(=O)C(O)C(NC(=O)OC(C)(C)C)c3ccco3)C(C)=C1C2(C)C (stereo not drawn) [Compound 1822]	> 9.00

Structure (SMILES)	pIC50
COC(=O)OC1C(=O)C2(C)C(O)CC3OCC3(OC(C)=O)C2C(OC(=O)c2ccccc2)C2(O)CC(OC(=O)C(O)C(NC(=O)OC(C)(C)C)c3cccnc3)C(C)=C1C2(C)C (stereo not drawn) [Compound 2011]	> 8.00
CCOC(=O)OC1C(=O)C2(C)C(O)CC3OCC3(OC(C)=O)C2C(OC(=O)c2ccccc2)C2(O)CC(OC(=O)C(O)C(NC(=O)OCC(C)C)c3cccs3)C(C)=C1C2(C)C (stereo not drawn) [Compound 3003]	> 8.00
CCOC(=O)OC1C(=O)C2(C)C(O)CC3OCC3(OC(C)=O)C2C(OC(=O)c2ccccc2)C2(O)CC(OC(=O)C(O)C(NC(=O)c3ccccc3)c3cccs3)C(C)=C1C2(C)C (stereo not drawn) [Compound 2972]	> 8.00
COC(=O)OC1C(=O)C2(C)C(O)CC3OCC3(OC(C)=O)C2C(OC(=O)c2ccccc2)C2(O)CC(OC(=O)C(O)C(NC(=O)OC(C)(C)C)c3cccs3)C(C)=C1C2(C)C (stereo not drawn) [Compound 2044]	> 9.00
CCOC(=O)OC1C(=O)C2(C)C(O)CC3OCC3(OC(C)=O)C2C(OC(=O)c2ccccc2)C2(O)CC(OC(=O)C(O)C(NC(=O)c3ccccn3)c3cccs3)C(C)=C1C2(C)C (stereo not drawn) [Compound 3433]	7.65
CCOC(=O)OC1C(=O)C2(C)C(O)CC3OCC3(OC(C)=O)C2C(OC(=O)c2ccccc2)C2(O)CC(OC(=O)C(O)C(NC(=O)OC(C)(C)C)c3ccsc3)C(C)=C1C2(C)C (stereo not drawn) [Compound 1841]	> 9.00
CCOC(=O)OC1C(=O)C2(C)C(O)CC3OCC3(OC(C)=O)C2C(OC(=O)c2ccccc2)C2(O)CC(OC(=O)C(O)C(NC(=O)c3cccnc3)c3cccs3)C(C)=C1C2(C)C (stereo not drawn) [Compound 3300]	> 8.00
CCCC(=O)NC(c1ccco1)C(O)C(=O)OC1CC2(O)C(OC(=O)c3ccccc3)C3C4(OC(C)=O)COC4CC(O)C3(C)C(=O)C(OC(=O)OCC)C(=C1C)C2(C)C (stereo not drawn) [Compound 3929]	> 9.00
COC(=O)OC1C(=O)C2(C)C(O)CC3OCC3(OC(C)=O)C2C(OC(=O)c2ccccc2)C2(O)CC(OC(=O)C(O)C(NC(=O)OC(C)(C)C)C3CCC3)C(C)=C1C2(C)C (stereo not drawn) [Compound 2077]	> 8.00
COC(=O)OC1C(=O)C2(C)C(O)CC3OCC3(OC(C)=O)C2C(OC(=O)c2ccccc2)C2(O)CC(OC(=O)C(O)C(NC(=O)OC(C)(C)C)c3ccccc3)C(C)=C1C2(C)C (stereo not drawn) [Compound 2092]	> 9.00
CC=CC(=O)NC(c1ccco1)C(O)C(=O)OC1CC2(O)C(OC(=O)c3ccccc3)C3C4(OC(C)=O)COC4CC(O)C3(C)C(=O)C(OC(=O)OCC)C(=C1C)C2(C)C (stereo not drawn) [Compound 4000]	> 9.00
COC(=O)OC1C(=O)C2(C)C(O)CC3OCC3(OC(C)=O)C2C(OC(=O)c2ccccc2)C2(O)CC(OC(=O)C(O)C(NC(=O)OC(C)(C)C)C(C)C)C(C)=C1C2(C)C (stereo not drawn) [Compound 2062]	> 8.00
CCOC(=O)OC1C(=O)C2(C)C(O)CC3OCC3(OC(C)=O)C2C(OC(=O)c2ccccc2)C2(O)CC(OC(=O)C(O)C(NC(=O)c3cccs3)c3cccs3)C(C)=C1C2(C)C (stereo not drawn) [Compound 3020]	> 9.00
CCOC(=O)OC1C(=O)C2(C)C(O)CC3OCC3(OC(C)=O)C2C(OC(=O)c2ccccc2)C2(O)CC(OC(=O)C(O)C(NC(=O)C(C)C)c3ccco3)C(C)=C1C2(C)C (stereo not drawn) [Compound 6466]	> 8.00
CCOC(=O)OC1C(=O)C2(C)C(O)CC3OCC3(OC(C)=O)C2C(OC(=O)c2ccccc2)C2(O)CC(OC(=O)C(O)C(NC(=O)c3cccs3)c3ccco3)C(C)=C1C2(C)C (stereo not drawn) [Compound 4088]	> 8.00
CCOC(=O)OC1C(=O)C2(C)C(O)CC3OCC3(OC(C)=O)C2C(OC(=O)c2ccccc2)C2(O)CC(OC(=O)C(O)C(NC(=O)OC(C)(C)C)C3CCC3)C(C)=C1C2(C)C (stereo not drawn) [Compound 1855]	> 8.00
